Reference: paper PMC9127186, “Molecular Basis Underlying Hepatobiliary and Renal Excretion of Phenolic Acids of Salvia miltiorrhiza Roots (Danshen)” (Frontiers in Pharmacology, 2022)

Key:
human OAT3 = molecular target: T1, human OAT3 (Homo sapiens, UniProt Q8TCC7); assay: Cellular transport assay, HEK-293 cells expressing human OAT3; details: for TransportTC/TransportMC ratio (net transport ratio): 10 min
T1 sequence (Q8TCC7 1-542): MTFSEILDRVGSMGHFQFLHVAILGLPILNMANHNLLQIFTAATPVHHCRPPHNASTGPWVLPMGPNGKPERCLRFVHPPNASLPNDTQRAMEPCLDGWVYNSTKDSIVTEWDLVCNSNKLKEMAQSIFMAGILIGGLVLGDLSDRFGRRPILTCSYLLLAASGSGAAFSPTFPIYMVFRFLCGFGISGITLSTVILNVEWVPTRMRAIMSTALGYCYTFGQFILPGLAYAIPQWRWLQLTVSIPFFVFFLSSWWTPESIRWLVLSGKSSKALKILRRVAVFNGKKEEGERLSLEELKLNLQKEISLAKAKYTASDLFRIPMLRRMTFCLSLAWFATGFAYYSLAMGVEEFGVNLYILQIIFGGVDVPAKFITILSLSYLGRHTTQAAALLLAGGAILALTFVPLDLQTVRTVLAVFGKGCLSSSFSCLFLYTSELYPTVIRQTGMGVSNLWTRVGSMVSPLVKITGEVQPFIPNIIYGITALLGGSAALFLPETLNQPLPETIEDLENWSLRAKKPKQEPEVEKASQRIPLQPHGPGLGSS
Method: Briefly, HEK-293 cells were grown, at 37°C and 5% CO2, in Dulbecco’s modified Eagle’s medium, which was fortified with 10% fetal bovine serum, 1% minimal essential medium nonessential amino acids, and 1% antibiotic-antimycotic solution. A day before transfection, cells were seeded onto 24-well poly-D-lysine-coated plates at a density of 2 × 10^5 cells per well. After incubation at 37°C and 5% CO2 for 24 h, the expression plasmid and the empty vector were introduced separately into the HEK293 cells with Lipofectamine 2000 transfection reagent (Invitrogen, Carlsbad, CA, United States), according to the manufacturer’s protocol to yield transporter-expressing cells and mock cells, respectively.
Transport studies were performed 48 h after the transfection. […] Differential uptake between the transfected cells and mock cells was defined as net transport ratio (TransportTC/TransportMC ratio), where TransportTC and TransportMC are the transport rates of a test Danshen compound into transfected and mock cells, respectively. […] The determination was performed under linear uptake conditions by incubation for 5 min. Table 1 summarizes the final concentrations of the test Danshen compounds for different transporters. All the incubation samples were analyzed by liquid chromatography/mass spectrometry.
GraFit software (version 5.0; Erithacus Software Ltd, Surrey, United Kingdom) was used to determine the K m and V max values by nonlinear regression analysis of initial transport rates as a function of substrate concentration.

human MRP2 = human MRP2 (Homo sapiens, UniProt Q92887); assay: Vesicular transport assay, inside-out membrane vesicles expressing human MRP2; details: for TransportATP/TransportAMP ratio (net transport ratio): 10 min
Method: (§1) Inside-out membrane vesicles (5 mg protein/mL), prepared from insect cells expressing human multidrug resistance-associated protein (MRP) 2, MRP3, MRP4, breast cancer resistance protein (BCRP), bile salt export pump (BSEP), and multidrug resistance protein (MDR) one and rat Mrp2, Mrp4, Bcrp, and Bsep, and vesicles (5 mg protein/mL; prepared from the insect cells expressing no ABC transporter; serving as negative control) were obtained from Genomembrane (Kanazawa, Japan).
(§2) The test Danshen compounds at 100 µM final concentration were separately incubated with the membrane vesicles for 10 min. Buffer C (50 mM MOPS-tris, 70 mM KCl, 7.5 mM MgCl2, pH 7.0) was used for preincubation and incubation, while buffer D (40 mM MOPS-tris, 70 mM KCl, pH 7.0) was used for vesicle washing. The transport rate (pmol/mg protein/min) of the test Danshen compound was calculated using Equation (2): Transport=(CV×VV)/T/WV (2) where C V, V V, T, and W V represent concentration of the compound in vesicular lysates supernatant (μM), volume of the lysates (μL), incubation time (10 min), and amount of vesicle protein amount per well (0.05 mg), respectively. Differential transport of the test Danshen compound between ATP-containing vesicles and AMP-containing vesicles was defined as net transport ratio (TransportATP/TransportAMP ratio). […] All the incubation samples were analyzed by liquid chromatography/mass spectrometry.

human OAT2 = molecular target: T2, human OAT2 (Homo sapiens, UniProt Q9Y694); assay: Cellular transport assay, HEK-293 cells expressing human OAT2; details: for TransportTC/TransportMC ratio (net transport ratio): 10 min; for K m: human hepatic sinusoidal uptake OAT2 (also renal basolateral), 5 min incubation, concentrations in Table 1
T2 sequence (Q9Y694 1-546 isoform Q9Y694-2): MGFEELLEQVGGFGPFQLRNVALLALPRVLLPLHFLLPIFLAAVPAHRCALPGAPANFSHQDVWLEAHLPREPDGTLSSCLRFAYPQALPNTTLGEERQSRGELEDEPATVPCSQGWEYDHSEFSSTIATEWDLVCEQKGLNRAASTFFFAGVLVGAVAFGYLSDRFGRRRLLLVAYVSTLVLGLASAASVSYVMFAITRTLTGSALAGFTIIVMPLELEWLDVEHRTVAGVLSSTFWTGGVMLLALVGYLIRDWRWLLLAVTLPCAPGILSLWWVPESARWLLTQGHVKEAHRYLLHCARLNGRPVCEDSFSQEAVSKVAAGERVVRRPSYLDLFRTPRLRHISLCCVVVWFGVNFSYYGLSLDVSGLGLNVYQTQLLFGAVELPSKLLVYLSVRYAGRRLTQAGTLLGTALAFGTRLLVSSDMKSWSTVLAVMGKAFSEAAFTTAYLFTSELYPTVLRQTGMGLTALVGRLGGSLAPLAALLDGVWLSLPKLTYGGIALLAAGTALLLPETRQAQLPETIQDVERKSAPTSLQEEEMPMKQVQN
Summary of the method: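 First, HEK-293 cells received either the expression plasmid or empty vector by lipofection; 48 h later they were incubated with test compound for 5 min.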

rat Mrp2 = rat Mrp2 (Rattus norvegicus, UniProt Q63120); assay: Vesicular transport assay, inside-out membrane vesicles expressing rat Mrp2; details: for TransportATP/TransportAMP ratio (net transport ratio): 10 min
Method: as §1, §2

[1] = Danshen phenolic acid at 100 μM final concentration, human OAT3-transfected vs mock cells
[2] = Danshen phenolic acid at 100 μM final concentration, human MRP2 vesicles
[3] = Danshen phenolic acid at 100 μM final concentration, human OAT2-transfected vs mock cells
[4] = Danshen phenolic acid at 100 μM final concentration, rat Mrp2 vesicles

rat Mrp2, sequence (Q63120 whole entry): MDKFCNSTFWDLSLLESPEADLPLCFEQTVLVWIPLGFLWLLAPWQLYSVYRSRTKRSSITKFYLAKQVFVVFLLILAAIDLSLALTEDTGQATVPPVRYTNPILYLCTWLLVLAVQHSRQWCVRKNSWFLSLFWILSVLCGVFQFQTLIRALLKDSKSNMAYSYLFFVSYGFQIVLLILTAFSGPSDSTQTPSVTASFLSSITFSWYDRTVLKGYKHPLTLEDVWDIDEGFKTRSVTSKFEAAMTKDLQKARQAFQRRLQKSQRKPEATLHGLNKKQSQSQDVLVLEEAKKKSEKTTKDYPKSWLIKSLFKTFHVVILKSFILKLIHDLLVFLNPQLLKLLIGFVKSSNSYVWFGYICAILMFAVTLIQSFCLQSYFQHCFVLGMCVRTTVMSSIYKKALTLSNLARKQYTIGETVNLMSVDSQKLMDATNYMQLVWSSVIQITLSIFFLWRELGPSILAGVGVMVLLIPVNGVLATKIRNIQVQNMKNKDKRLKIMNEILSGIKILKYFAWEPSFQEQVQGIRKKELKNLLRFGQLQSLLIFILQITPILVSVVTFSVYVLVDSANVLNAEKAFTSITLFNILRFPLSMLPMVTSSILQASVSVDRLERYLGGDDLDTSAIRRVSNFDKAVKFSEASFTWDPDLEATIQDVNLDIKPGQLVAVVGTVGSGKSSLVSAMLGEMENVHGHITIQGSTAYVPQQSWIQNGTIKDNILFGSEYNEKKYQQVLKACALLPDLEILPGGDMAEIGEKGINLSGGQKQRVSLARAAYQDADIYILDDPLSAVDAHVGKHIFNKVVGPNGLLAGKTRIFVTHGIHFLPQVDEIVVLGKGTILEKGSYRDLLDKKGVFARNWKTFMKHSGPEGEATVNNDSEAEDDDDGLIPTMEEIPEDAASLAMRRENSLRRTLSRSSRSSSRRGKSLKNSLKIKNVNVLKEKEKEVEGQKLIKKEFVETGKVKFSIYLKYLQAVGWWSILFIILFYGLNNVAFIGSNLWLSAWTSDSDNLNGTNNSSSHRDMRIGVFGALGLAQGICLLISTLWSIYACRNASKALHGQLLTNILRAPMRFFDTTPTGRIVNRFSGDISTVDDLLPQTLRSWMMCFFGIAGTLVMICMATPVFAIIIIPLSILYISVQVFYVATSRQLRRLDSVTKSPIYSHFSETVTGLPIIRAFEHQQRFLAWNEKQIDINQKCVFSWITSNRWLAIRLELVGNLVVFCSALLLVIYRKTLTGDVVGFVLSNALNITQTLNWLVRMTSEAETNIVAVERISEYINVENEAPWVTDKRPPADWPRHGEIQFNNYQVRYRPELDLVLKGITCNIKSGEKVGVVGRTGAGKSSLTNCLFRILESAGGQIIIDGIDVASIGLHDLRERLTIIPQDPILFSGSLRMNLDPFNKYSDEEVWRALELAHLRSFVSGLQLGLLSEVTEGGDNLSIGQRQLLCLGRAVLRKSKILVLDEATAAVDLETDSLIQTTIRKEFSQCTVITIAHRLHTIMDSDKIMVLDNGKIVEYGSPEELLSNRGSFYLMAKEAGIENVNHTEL
human MRP2, sequence (Q92887 whole entry): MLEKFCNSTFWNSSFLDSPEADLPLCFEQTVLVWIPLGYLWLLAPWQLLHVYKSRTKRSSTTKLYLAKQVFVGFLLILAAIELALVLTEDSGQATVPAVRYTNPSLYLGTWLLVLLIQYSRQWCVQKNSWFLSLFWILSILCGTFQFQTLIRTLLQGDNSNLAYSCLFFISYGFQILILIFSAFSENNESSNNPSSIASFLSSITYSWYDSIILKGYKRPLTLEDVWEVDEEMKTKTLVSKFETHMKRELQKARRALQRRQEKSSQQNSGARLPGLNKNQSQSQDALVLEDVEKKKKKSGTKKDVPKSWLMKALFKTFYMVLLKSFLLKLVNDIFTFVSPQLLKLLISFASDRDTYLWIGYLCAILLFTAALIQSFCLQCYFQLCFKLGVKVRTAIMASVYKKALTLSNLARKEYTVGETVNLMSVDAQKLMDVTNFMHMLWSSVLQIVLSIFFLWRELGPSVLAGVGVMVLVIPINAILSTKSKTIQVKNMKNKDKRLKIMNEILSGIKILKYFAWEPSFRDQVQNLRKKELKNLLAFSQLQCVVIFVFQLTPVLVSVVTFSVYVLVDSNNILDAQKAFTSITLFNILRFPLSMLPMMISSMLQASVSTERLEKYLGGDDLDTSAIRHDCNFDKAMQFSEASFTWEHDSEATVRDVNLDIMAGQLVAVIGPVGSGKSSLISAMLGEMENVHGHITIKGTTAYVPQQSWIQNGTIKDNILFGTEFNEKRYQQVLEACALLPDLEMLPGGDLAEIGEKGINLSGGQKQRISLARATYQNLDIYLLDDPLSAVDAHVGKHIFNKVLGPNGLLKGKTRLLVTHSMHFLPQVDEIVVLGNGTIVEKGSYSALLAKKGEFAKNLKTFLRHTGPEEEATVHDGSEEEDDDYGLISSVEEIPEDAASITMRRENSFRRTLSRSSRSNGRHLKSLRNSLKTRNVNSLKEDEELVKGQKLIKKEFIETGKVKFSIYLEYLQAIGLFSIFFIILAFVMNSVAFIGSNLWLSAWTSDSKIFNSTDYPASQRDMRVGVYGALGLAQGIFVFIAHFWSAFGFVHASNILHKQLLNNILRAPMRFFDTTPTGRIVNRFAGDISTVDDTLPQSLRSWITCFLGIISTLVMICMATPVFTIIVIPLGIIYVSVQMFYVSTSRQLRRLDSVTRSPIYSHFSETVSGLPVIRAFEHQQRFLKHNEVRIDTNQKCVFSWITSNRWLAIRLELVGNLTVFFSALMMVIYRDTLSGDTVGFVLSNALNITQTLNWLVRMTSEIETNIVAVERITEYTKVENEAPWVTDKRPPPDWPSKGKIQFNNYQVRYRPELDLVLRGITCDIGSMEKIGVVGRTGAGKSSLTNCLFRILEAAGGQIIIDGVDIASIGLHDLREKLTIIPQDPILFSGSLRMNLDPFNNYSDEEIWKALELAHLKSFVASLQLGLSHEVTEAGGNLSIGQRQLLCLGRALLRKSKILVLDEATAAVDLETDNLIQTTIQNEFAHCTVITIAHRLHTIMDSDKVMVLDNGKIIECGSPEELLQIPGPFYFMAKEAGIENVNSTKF

Row | Compound | TransportTC/TransportMC ratio (net transport ratio) (human OAT3; [1]) | substrate of human MRP2 (human MRP2) | TransportATP/TransportAMP ratio (net transport ratio) (human MRP2; [2]) | TransportTC/TransportMC ratio (net transport ratio) (human OAT2; [3]) | TransportATP/TransportAMP ratio (net transport ratio) (rat Mrp2; [4]) | substrate of human OAT2 (human OAT2) | microsomal CLint (human OAT2; human) [µL/min/mg] | K m (human OAT2) | TransportTC/TransportMC ratio (net transport ratio) (human OAT3; human, 100 μM) | TransportATP/TransportAMP ratio (net transport ratio) (human MRP2; human, 100 μM, pH 7) | TransportTC/TransportMC ratio (net transport ratio) (human OAT2; human, 100 μM) | microsomal CLint (human OAT2; human, other cell line) [µL/min/mg] | TransportATP/TransportAMP ratio (net transport ratio) (rat Mrp2; rat, 100 μM, pH 7) | K m (human OAT3; human renal basolateral uptake OAT3, 5 min incubation, concentrations in Table 1) | microsomal CLint (human OAT3; human, other cell line) [µL/min/mg] | substrate of rat Mrp2 (rat Mrp2)
1 | O=C(/C=C/c1ccc(O)c2c1[C@H](C(=O)O)[C@@H](c1ccc(O)c(O)c1)O2)O[C@H](Cc1ccc(O)c(O)c1)C(=O)O [Lithospermic acid, lithospermic acid] | 0.96 ± 0.15 | substrates | 5.02 ± 1.67 | 1.51 ± 0.27 | 1.83 ± 0.45 | – | – | – | – | – | – | – | – | – | – | –
2 | O=C(O)c1ccc(O)c(O)c1 [Protocatechuic acid, protocatechuic acid] | 1.12 ± 0.25 | – | 0.94 ± 0.31 | 417 ± 23 | 0.74 ± 0.13 | substrates | 20.7 | 185 ± 24 µM | – | – | – | – | – | – | – | –
3 | O=C(/C=C/c1ccc(O)c(O)c1)O[C@H](Cc1ccc(O)c(O)c1)C(=O)O [Rosmarinic acid, rosmarinic acid] | – | – | – | – | – | substrates | – | 48.6 ± 4.2 µM | 1.56 ± 0.36 | 1.13 ± 0.34 | 716 ± 86 | 19.1 | 1.24 ± 0.45 | – | – | –
4 | O=C(/C=C/c1ccc(O)c(O)c1/C=C/c1ccc(O)c(O)c1)O[C@H](Cc1ccc(O)c(O)c1)C(=O)O [Salvianolic acid A, salvianolic acid A] | – | – | – | – | – | not a substrate | – | – | 2.12 ± 0.13 | 1.42 ± 0.31 | 2.25 ± 0.47 | – | 1.80 ± 0.81 | – | – | –
5 | O=C(O)Cc1c(/C=C/C(=O)O[C@H](Cc2ccc(O)c(O)c2)C(=O)O)ccc(O)c1O [Salvianolic acid D, salvianolic acid D] | 1.12 ± 0.56 | – | 1.51 ± 0.73 | 314 ± 44 | 2.21 ± 0.89 | substrates | 24.3 | 111 ± 13 µM | – | – | – | – | – | – | – | –
6 | O=C(O)C(O)Cc1ccc(O)c(O)c1 (stereo not shown) [Tanshinol, tanshinol] | – | – | – | – | – | – | – | 1,228 ± 160 μM | – | – | – | – | – | 1,565 ± 127 μM | 0.11 | –
7 | salvianolic acid B | 1.03 ± 0.24 | substrates | 6.21 ± 1.32 | 1.04 ± 0.09 | 4.43 ± 1.12 | – | – | – | – | – | – | – | – | – | – | substrate
